Data as given in publication PMC11079024, “Identification of a family of species-selective complex I inhibitors as potential anthelmintics” (Nature Communications, 2024).
Where two headings read alike, the source gives them in different places.

What was measured:
[1] = test system: ben-1 mutant (ECA882) C. elegans; assay: microbe, parasite or virus in culture; conditions: Caenorhabditis elegans; for viability at 1 µM / viability at 2 µM / viability at 3.9 µM / viability at 15.6 µM / viability at 31.3 µM / viability at 62.5 µM / viability at 125 µM / viability at 250 µM / viability at 500 µM / viability at 1000 µM: read-out: C. elegans ben-1(e1880) development/viability
Outline: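 Development and viability scored from single well images as total worm pixels divided by the matching DMSO control value, mean of ≥3 replicates. Worms added as synchronized L1s to HB101 suspension in liquid NGM with compound (1% DMSO v/v), grown 6 days at 20 °C with shaking.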

[2] = target: B. taurus (heart) complex I (Bos taurus, UniProt P03887+P17694+P42026); assay: biochemical; format: biochemical; conditions: for activity at 0.0001 µM / activity at 0.0005 µM / activity at 0.001 µM / activity at 0.0025 µM / activity at 0.005 µM / activity at 0.013 µM / activity at 0.025 µM / activity at 0.063 µM / activity at 0.125 µM / activity at 0.313 µM / activity at 0.625 µM / activity at 1.5 µM / activity at 3 µM / activity at 15 µM / activity at 37.5 µM / activity at 75 µM: read-out: B. taurus mitochondrial complex I activity; for Log IC50 B. taurus complex I: log10 of IC50 in µM, B. taurus mitochondria
Outline: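 Complex I activity followed as DCIP reduction (600 nm, 30 s reads, 15 min) with 80 μM NADH and 60 μM decylubiquinone in 25 mM KPi pH 7.5 containing 2 μM antimycin A and 2 mM KCN. Freeze-thawed mouse or bovine heart mitochondria at 0.2 mg/mL; initial-rate percent of solvent control, single-point 100 μM or dose-response.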

L1 wild-type C. elegans = assay: microbe, parasite or virus in culture; conditions: Caenorhabditis elegans, read-out: C. elegans KCN Survival Assay LC50, estimated from fitted dose-response curves; mean of at least two biological replicates
[3] = read-out: C. elegans (ben-1) Development & Viability Assay LC50
[4] = read-out: C. elegans ben-1 log10 LC50 (converted)
[5] = B. taurus heart mitochondria, read-out: B. taurus Complex I IC50
[6] = B. taurus heart mitochondria, estimated from fitted dose-response curves, read-out: B. taurus Complex I IC50

B. taurus (heart) complex I, sequence (P03887 whole entry): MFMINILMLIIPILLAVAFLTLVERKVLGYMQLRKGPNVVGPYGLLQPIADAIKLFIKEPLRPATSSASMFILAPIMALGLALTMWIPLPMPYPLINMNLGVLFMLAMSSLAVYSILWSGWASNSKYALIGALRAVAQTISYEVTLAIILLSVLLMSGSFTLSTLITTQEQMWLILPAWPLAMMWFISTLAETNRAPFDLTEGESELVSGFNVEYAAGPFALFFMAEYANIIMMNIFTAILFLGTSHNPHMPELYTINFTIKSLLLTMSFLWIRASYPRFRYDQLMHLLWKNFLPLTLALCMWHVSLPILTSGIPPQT
B. taurus (heart) complex I, sequence (P17694 34-463): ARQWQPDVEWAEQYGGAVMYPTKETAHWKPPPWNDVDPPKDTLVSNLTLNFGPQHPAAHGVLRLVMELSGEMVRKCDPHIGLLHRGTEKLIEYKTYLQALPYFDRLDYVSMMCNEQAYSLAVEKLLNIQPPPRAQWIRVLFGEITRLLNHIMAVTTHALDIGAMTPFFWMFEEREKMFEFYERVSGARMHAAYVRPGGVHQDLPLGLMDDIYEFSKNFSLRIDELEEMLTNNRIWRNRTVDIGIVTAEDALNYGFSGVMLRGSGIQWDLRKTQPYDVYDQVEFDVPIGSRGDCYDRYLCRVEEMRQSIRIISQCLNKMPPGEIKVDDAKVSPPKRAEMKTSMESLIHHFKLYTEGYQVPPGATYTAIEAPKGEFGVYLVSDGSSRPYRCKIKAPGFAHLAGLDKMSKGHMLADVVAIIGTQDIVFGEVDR
B. taurus (heart) complex I, sequence (P42026 38-216): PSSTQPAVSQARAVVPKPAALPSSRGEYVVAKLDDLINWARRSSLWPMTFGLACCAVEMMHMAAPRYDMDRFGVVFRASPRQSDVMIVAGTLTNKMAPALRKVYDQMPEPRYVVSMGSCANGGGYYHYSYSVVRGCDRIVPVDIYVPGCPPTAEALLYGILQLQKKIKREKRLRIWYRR

Compound | LC50 [1, 3] [µM] | LC50 [1, 4] [µM] | IC50 [2, 5] [µM] | activity at 0.0001 µM [2] [%] | activity at 0.0005 µM [2] [%] | activity at 0.001 µM [2] [%] | activity at 0.0025 µM [2] [%] | activity at 0.005 µM [2] [%] | activity at 0.013 µM [2] [%] | activity at 0.025 µM [2] [%] | activity at 0.063 µM [2] [%] | activity at 0.125 µM [2] [%] | activity at 0.313 µM [2] [%] | activity at 0.625 µM [2] [%] | activity at 1.5 µM [2] [%] | activity at 3 µM [2] [%] | activity at 15 µM [2] [%] | activity at 37.5 µM [2] [%] | Log IC50 B. taurus complex I [2] [µM] | LC50 (L1 wild-type C. elegans) [µM] | also measured
Cc1nc2ccccc2n1CCOc1ccccc1 [Compound 5550112] | > 1000 | > 500 | 9.86 | 101 | 97.8 | 105 | 102 | 103 | 98.3 | 99.2 | 91.8 | 95.1 | 92.8 | 96.9 | 85.2 | 74.2 | 36.6 | 16.7 | 0.99 | 32.9 | viability at 1 µM [1]: 99.2%; viability at 2 µM [1]: 100%; viability at 3.9 µM [1]: 96.9%; viability at 15.6 µM [1]: 97.1%; viability at 31.3 µM [1]: 92.9%; viability at 62.5 µM [1]: 100%; viability at 125 µM [1]: 93.6%; viability at 250 µM [1]: 86.4%; viability at 500 µM [1]: 91.2%; viability at 1000 µM [1]: 92.4%; LC50 ([1]; read-out: C. elegans ben-1 LC50): > 500 µM; activity at 75 µM [2]: 5.1%
Cc1nc2ccccc2n1CCOc1ccccc1Cl [Compound 5561642] | 636 | 635 | 8.05 | 88.4 | 88.9 | 90.3 | 85.7 | 90.4 | 86.9 | 83.6 | 88.9 | 88.4 | 83.2 | 86.2 | 75.9 | 63.2 | 29.8 | 11.9 | 0.91 | 11.7 | viability at 1 µM [1]: 97%; viability at 2 µM [1]: 98.6%; viability at 3.9 µM [1]: 100%; viability at 15.6 µM [1]: 99.1%; viability at 31.3 µM [1]: 100%; viability at 62.5 µM [1]: 91.8%; viability at 125 µM [1]: 98.9%; viability at 250 µM [1]: 96.4%; viability at 500 µM [1]: 35.3%; viability at 1000 µM [1]: 46.7%; activity at 75 µM [2]: 6%
Cc1nc2ccccc2n1Cc1ccc(Br)cc1 [Compound 5567167] | 11.2 | 11.2 | – | – | – | – | – | – | – | – | – | – | – | – | – | – | – | – | -0.68 | 1.34 | IC50 [2, 6]: 0.209 µM; IC50 ([2]; in vitro complex I dose response on B. taurus mitochondria, average of at least two biological replicates, fit in R (DRC), read-out: IC50 B. taurus complex I): 0.21 µM
Clc1ccc(Cn2cnc3ccccc32)cc1Cl [Compound 5571325] | 69.5 | 69.5 | 11.5 | 97.2 | 100 | 100 | 99.4 | 97.3 | 88.2 | 96.9 | 95.3 | 96 | 92.8 | 96.3 | 89.7 | 83.9 | 36 | 5.23 | 1.06 | 13.1 | activity at 75 µM [2]: 1.54%
Cc1ccc(Cn2c(C)nc3ccccc32)cc1 [Compound 5651984] | 108 | 108 | – | – | – | – | – | – | – | – | – | – | – | – | – | – | – | – | -0.00436 | 7.24 | IC50 [2, 6]: 0.99 µM
